Measurements as given in publication PMC7307906, “Macrocyclic Modalities Combining Peptide Epitopes and Natural Product Fragments” (Journal of the American Chemical Society, 2020).
“And” between values parts separate entries of the source, which are not always exact repeats. Equal entries are not always repeated. Where two headings read alike, the source gives them in different places.

Experiments:
human MC5R = target: T1, human MC5R (Homo sapiens, UniProt P33032); experiment: Melanocortin receptor radioligand binding (SPA, [125I]-NDP-α-MSH displacement), MC5R; details: competitive binding, [125I]-NDP-α-MSH; mean (± SEM) of at least three independent experiments; read-out: IC50 hMC5R binding
T1 construct: expressed in transfected cells; host or cells: HEK293-6E suspension cells, transient expression; membranes

human MC1R = target: T2, human MC1R (Homo sapiens, UniProt Q01726); experiment: cAMP assay (LANCE) in T-Rex-293 cells expressing MC1R; type: cell-based; details: for Emax: T-REx-293, read-out: % Effect hMC1R cAMP
T2 construct: expressed in transfected cells

human MC3R = target: T3, human MC3R (Homo sapiens, UniProt P41968); experiment: cAMP assay (LANCE) in T-Rex-293 cells expressing MC3R; type: cell-based; details: Emax (curve plateau), relative to NDP-α-MSH; NA = No Activity detected, threshold 20% effect
T3 construct: expressed in transfected cells

human MC4R = target: T4, human MC4R (Homo sapiens, UniProt P32245); experiment: cAMP assay (LANCE) in T-Rex-293 cells expressing MC4R; type: cell-based; details: Emax (curve plateau), relative to NDP-α-MSH; NA = No Activity detected, threshold 20% effect
T4 construct: expressed in transfected cells

[1] = other bond, Fmoc removal, intramolecular imine, N-methylmaleimide 1,3-dipolar cycloaddition, resin, 4 steps
[2] = the molecule shown is the open-chain precursor, other bond, 31-membered ring, CH(OMe)3/Et3N, then 7/LiBr/Et3N, DMF, THF, resin, 25.0 °C, with chain assembly
[3] = the molecule shown is the open-chain precursor, other bond, 34-membered ring, CH(OMe)3/Et3N, then 6/LiBr/Et3N, DMF, THF, resin, 25.0 °C, with chain assembly
[4] = other bond, 34-membered ring, imine formation, then N-methylmaleimide cycloaddition (RP-04), resin, 4 steps
[5] = the molecule shown is the open-chain precursor, other bond, 31-membered ring, CH(OMe)3/Et3N, then 6/LiBr/Et3N, DMF, THF, resin, 25.0 °C, with chain assembly
[6] = the molecule shown is the open-chain precursor, other bond, 37-membered ring, CH(OMe)3/Et3N, then 6/LiBr/Et3N, DMF, THF, resin, 25.0 °C, with chain assembly
[7] = other bond, imine formation, then N-phenylmaleimide cycloaddition (RP-04), resin, with chain assembly

T2 sequence (Q01726 whole entry): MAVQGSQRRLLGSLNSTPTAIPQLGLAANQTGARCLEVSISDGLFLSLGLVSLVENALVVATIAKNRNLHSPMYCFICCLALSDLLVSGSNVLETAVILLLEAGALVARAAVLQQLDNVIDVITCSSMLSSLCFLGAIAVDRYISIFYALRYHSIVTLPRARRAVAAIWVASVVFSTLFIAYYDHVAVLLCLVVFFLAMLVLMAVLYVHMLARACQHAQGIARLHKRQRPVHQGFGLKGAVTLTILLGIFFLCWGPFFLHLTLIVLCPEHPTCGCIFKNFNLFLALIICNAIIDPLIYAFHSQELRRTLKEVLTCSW
T4 sequence (P32245 whole entry): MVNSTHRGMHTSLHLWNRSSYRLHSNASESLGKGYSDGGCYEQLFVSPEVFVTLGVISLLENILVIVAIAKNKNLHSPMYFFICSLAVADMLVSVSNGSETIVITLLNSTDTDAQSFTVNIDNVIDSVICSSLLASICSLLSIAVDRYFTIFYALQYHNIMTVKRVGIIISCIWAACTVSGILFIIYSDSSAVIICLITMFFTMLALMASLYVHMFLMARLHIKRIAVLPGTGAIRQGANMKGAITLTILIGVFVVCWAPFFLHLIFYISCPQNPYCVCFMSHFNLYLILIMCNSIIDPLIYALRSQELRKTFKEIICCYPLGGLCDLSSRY
T3 sequence (P41968 whole entry): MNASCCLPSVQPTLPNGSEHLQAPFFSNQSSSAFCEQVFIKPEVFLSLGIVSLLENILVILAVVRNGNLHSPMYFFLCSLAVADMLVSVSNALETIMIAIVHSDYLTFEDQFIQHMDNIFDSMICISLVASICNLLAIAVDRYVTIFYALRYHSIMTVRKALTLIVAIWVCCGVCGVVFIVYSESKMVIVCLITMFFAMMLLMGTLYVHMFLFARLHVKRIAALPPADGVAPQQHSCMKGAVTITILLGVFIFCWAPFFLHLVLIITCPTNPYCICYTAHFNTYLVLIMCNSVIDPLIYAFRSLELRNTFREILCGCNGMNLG
T1 sequence (P33032 whole entry): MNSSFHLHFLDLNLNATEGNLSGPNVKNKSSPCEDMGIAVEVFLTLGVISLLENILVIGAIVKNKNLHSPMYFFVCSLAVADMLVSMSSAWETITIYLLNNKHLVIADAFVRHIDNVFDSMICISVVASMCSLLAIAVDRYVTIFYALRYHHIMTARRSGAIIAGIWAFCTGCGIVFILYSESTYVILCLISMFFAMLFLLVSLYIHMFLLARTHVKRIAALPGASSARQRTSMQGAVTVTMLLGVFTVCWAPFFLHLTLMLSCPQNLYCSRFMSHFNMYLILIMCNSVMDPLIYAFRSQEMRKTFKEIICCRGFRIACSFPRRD

CC(=O)N[C@@H](CCCNC(=N)N)C(=O)N[C@H]1CSSC[C@@H](C(N)=O)NC(=O)[C@H](Cc2c[nH]c3ccccc23)NC(=O)[C@H](CCCNC(=N)N)NC(=O)[C@@H](Cc2ccccc2)NC(=O)[C@H](Cc2c[nH]cn2)NC(=O)[C@@H](C)NC1=O [RM493, reference compound]
IC50 (human MC5R): 1.8 ± 0.3 µM | Emax (human MC1R): 96% | % Effect hMC3R cAMP (human MC3R): 98% | % Effect hMC4R cAMP (human MC4R): 100%

C[C@@H]1NC(=O)[C@H](CC(N)=O)NC(=O)[C@@H](Cc2ccccc2)NC(=O)[C@@H](Cc2ccccc2)NC(=O)[C@H](CCCNC(=N)N)NC(=O)[C@H](Cc2ccccc2)N(C)C(=O)[C@@H]2N[C@H](c3ccc(cc3)C(=O)NCCCC[C@@H](C(=O)N[C@@H](Cc3ccc(O)cc3)C(N)=O)NC(=O)[C@H](Cc3ccccc3)NC1=O)[C@]1(C(=O)Nc3ccccc31)[C@H]2c1ccccc1 [C2-major, [X-FRffNAFK ]Y]
Emax (human MC1R): 57%

CN1C(=O)[C@@H]2N[C@H](c3ccc(cc3)C(=O)NCCCC[C@@H](C(=O)N[C@@H](Cc3ccc(O)cc3)C(N)=O)NC(=O)[C@H](Cc3ccccc3)NC(=O)[C@H](Cc3ccccc3)NC(=O)[C@H](CCCNC(=N)N)NC(=O)[C@@H]1Cc1ccccc1)[C@@H]1C(=O)N(c3ccccc3)C(=O)[C@@H]12 [N1-minor*, [II-FRFFK ]Y]
Emax (human MC1R): 56%

CN1C(=O)[C@@H]2N[C@H](c3ccc(cc3)C(=O)NCCCC[C@@H](C(=O)NCC(N)=O)NC(=O)[C@H](Cc3ccccc3)NC(=O)[C@H](Cc3ccccc3)NC(=O)[C@H](CCCNC(=N)N)NC(=O)[C@@H]1Cc1ccccc1)[C@@H]1C(=O)N(c3ccccc3)C(=O)[C@@H]12 [N2-minor*, [II-FRFFK ]G]
Emax (human MC1R): 36%

[N-Me-fused-di-pyrrolidine-NMeFFLK]G, P1
ring closure, yield after HPLC (other bond, imine formation, then N-methylmaleimide cycloaddition (RP-04), resin, with chain assembly): 4%

[N-Me-fused-di-pyrrolidine-FDINNNK]G
ring closure, yield after HPLC [1]: 2%

[N-3,4,5-OMePh-fused-di-pyrrolidine-NMeFRffNK]G
ring closure, yield after HPLC (other bond, Fmoc removal (RP-03), imine cyclization/N-(3,4,5-trimethoxyphenyl)maleimide 1,3-dipolar cycloaddition (RP-04), resin, 3 steps): 2%

[N-Ph-fused-di-pyrrolidine-NMeFDINNNDap]G
ring closure, yield after HPLC (other bond, Fmoc removal, intramolecular imine, N-phenylmaleimide 1,3-dipolar cycloaddition, resin, 4 steps): 2%

H-Gly-MePhe-Arg-Phe-Phe-Asn-Lys(4-formylbenzoyl)-Gly-resin?
ring closure, yield after HPLC [2]: 6%

[N-Ph-fused-di-pyrrolidine-NMeFRANK]G
ring closure, yield after HPLC (other bond, Fmoc removal (RP-03), imine cyclization/N-phenylmaleimide 1,3-dipolar cycloaddition (RP-04), resin, 3 steps): 3%

[N-Me-fused-di-pyrrolidine-NMeFALFPGFK]G, A1
ring closure, yield after HPLC (other bond, 37-membered ring, CH(OMe)3/Et3N, then 6/LiBr/Et3N, DMF, THF, resin, 25.0 °C, 4 steps): 22%

H-Gly-MePhe-Asp-Ile-Asn-Asn-Asn-Lys(4-formylbenzoyl)-Gly-resin
ring closure, yield after HPLC (the molecule shown is the open-chain precursor, other bond, 34-membered ring, CH(OMe)3/Et3N, then 12/LiBr/Et3N, DMF, THF, resin, 25.0 °C, with chain assembly): 3%

[N-Me-fused-di-pyrrolidine-NMeFDINNNVK]G
ring closure, yield after HPLC [1]: 5%

[pyrrolidine-NMeFDINNNK]G
ring closure, yield after HPLC (other bond, Fmoc removal (RP-03), imine cyclization/1,3-dipolar cycloaddition, dimethyl maleate (RP-04), resin, 4 steps): 6% and 7%

H-Gly-MePhe-Arg-Phe-Phe-Asn-Ala-Lys(4-formylbenzoyl)-Tyr-resin?
ring closure, yield after HPLC [3]: 3% | ring closure, yield after HPLC (the molecule shown is the open-chain precursor, other bond, 34-membered ring, CH(OMe)3/Et3N, then 7/LiBr/Et3N, DMF, THF, resin, 25.0 °C, with chain assembly): 2%

[N-Me-fused-di-pyrrolidine-NMeLDINNNK]G
ring closure, yield after HPLC [4]: 3% and 20%

H-Gly-MePhe-Arg-Phe-Phe-Asn-Lys(4-formylbenzoyl)-Tyr-resin?
ring closure, yield after HPLC [5]: 3%

[N-Ph-fused-di-pyrrolidine-NMeFDINNNK]G
ring closure, yield after HPLC (other bond, Fmoc removal (RP-03), imine cyclization/1,3-dipolar cycloaddition, N-phenylmaleimide (RP-04), resin, 4 steps): 5%

H-Gly-MePhe-Arg-dPhe-dPhe-Asn-Ala-Phe-Lys(4-formylbenzoyl)-Tyr-resin?
ring closure, yield after HPLC [6]: 2% | ring closure, yield after HPLC (the molecule shown is the open-chain precursor, other bond, 37-membered ring, CH(OMe)3/Et3N, then 11/LiBr/Et3N, DMF, THF, resin, 25.0 °C, with chain assembly): 1%

H-Gly-MePhe-Arg-dPhe-dPhe-Asn-Ala-Lys(4-formylbenzoyl)-Tyr-resin?
ring closure, yield after HPLC [3]: 2%

[Ph-pyrrolidinyl-spirooxindole-NMeFRffNAK]G
ring closure, yield after HPLC (other bond, (E)-3-benzylidene-indolin-2-one (RP-04; imine cyclization/1,3-dipolar cycloaddition), resin, 4 steps): 5%

[N-Me-fused-di-pyrrolidine-NMeFRANK]G
ring closure, yield after HPLC (other bond, Fmoc removal (RP-03), imine cyclization/N-methylmaleimide 1,3-dipolar cycloaddition (RP-04), resin, 3 steps): 14%

H-Gly-Pro-Asp-Ile-Asn-Asn-Asn-Lys(4-formylbenzoyl)-Gly-resin?
ring closure, yield after HPLC [3]: 3%

[N-Me-fused-di-pyrrolidine-NMeFDINNNOrn]G
ring closure, yield after HPLC (other bond, 33-membered ring, imine formation, then N-methylmaleimide cycloaddition (RP-04), resin, with chain assembly): 13%

[N-Me-fused-di-pyrrolidine-NMeFDINNNDab]G
ring closure, yield after HPLC (other bond, 32-membered ring, imine formation, then N-methylmaleimide cycloaddition (RP-04), resin, with chain assembly): 3%

[N-Ph-fused-di-pyrrolidine-NMeFRffK]Y, O2
ring closure, yield after HPLC [7]: 2%

C[C@@H]1NC(=O)[C@H](CC(N)=O)NC(=O)[C@@H](Cc2ccccc2)NC(=O)[C@@H](Cc2ccccc2)NC(=O)[C@H](CCCNC(=N)N)NC(=O)[C@H](Cc2ccccc2)N(C)C(=O)C2NC(c3ccc(cc3)C(=O)NCCCC[C@@H](C(=O)N[C@@H](Cc3ccc(O)cc3)C(N)=O)NC(=O)[C@H](Cc3ccccc3)NC1=O)C1(C(=O)Nc3ccccc31)C2c1ccccc1 (some centres unmarked) [C2-minor, [X-FRffNAFK ]Y]
Emax (human MC1R): 36%

[N-Ph-fused-di-pyrrolidine-NMeFRFFK]G, N2
ring closure, yield after HPLC [7]: 2% and 3%

H-Gly-MePhe-Leu-Lys-Pro-Ile-Lys(4-formylbenzoyl)-Gly-resin?
ring closure, yield after HPLC [5]: 8% | ring closure, yield after HPLC [2]: 5% | ring closure, yield after HPLC (the molecule shown is the open-chain precursor, other bond, 31-membered ring, CH(OMe)3/Et3N, then 13/LiBr/Et3N, DMF, THF, resin, 25.0 °C, with chain assembly): 4%

H-Gly-MePhe-Asp-Ile-Asn-Asn-Asn-Val-Lys(4-formylbenzoyl)-Gly-resin?
ring closure, yield after HPLC [6]: 5%

[N-Ph-fused-di-pyrrolidine-NMeFRffNK]Y
ring closure, yield after HPLC (amide bond, 31-membered ring, resin, 3 steps): 2%

H-Gly-MePhe-Glu-Glu-Lys-Asp-Ile-Asn-Asn-Asn-Val-Lys-Lys(4-formylbenzoyl)-Thr-resin?
ring closure, yield after HPLC (the molecule shown is the open-chain precursor, other bond, 49-membered ring, CH(OMe)3/Et3N, then 6/LiBr/Et3N, DMF, THF, resin, 25.0 °C, with chain assembly): 2%

H-Gly-MePhe-Ala-His-Ala-Ser-Asn-Lys(4-formylbenzoyl)-Gly-resin?
ring closure, yield after HPLC [3]: 3%

H-Gly-MePhe-Gly-Leu-Gly-Phe-Lys(4-formylbenzoyl)-Phe-resin?
ring closure, yield after HPLC [2]: 5% | ring closure, yield after HPLC (the molecule shown is the open-chain precursor, other bond, 31-membered ring, CH(OMe)3/Et3N, then 11/LiBr/Et3N, DMF, THF, resin, 25.0 °C, with chain assembly): 4%

Y[CRffNAFC]Y
ring closure, yield after HPLC (disulfide bond, 26-membered ring, DMSO/AcOH, DMSO/AcOH/H2O, 1.55 mM, 25.0 °C, 3 steps): 17%

CCCC[C@H](NC(C)=O)C(=O)N[C@H]1CC(=O)NCCCC[C@@H](C(=O)O)NC(=O)[C@H](Cc2c[nH]c3ccccc23)NC(=O)[C@H](CCCNC(=N)N)NC(=O)[C@@H](Cc2ccccc2)NC(=O)[C@H](Cc2c[nH]cn2)NC1=O [Bremelanotid (BreMT), Bremelanotid, reference compound]
% Effect hMC1R cAMP (human MC1R; Emax (curve plateau), relative to NDP-α-MSH, NA = No Activity detected, threshold 20% effect): 97%

[N-Me-fused-di-pyrrolidine-NMefDINNNK]G
ring closure, yield after HPLC [1]: 5%

[N-Me-fused-di-pyrrolidine-NMeVDINNNK]G
ring closure, yield after HPLC [4]: 27% and 12%

CN1C(=O)[C@@H]2N[C@H](c3ccc(cc3)C(=O)NCCCC[C@@H](C(=O)N[C@@H](Cc3ccc(O)cc3)C(N)=O)NC(=O)[C@@H](Cc3ccccc3)NC(=O)[C@@H](Cc3ccccc3)NC(=O)[C@H](CCCNC(=N)N)NC(=O)[C@@H]1Cc1ccccc1)[C@@H]1C(=O)N(c3ccccc3)C(=O)[C@@H]12 [O2-major, [II-FRffK ]Y]
Emax (human MC1R): 62%
